From patent EP4389111A1, “METHOD OF PREPARATION OF C[…] […] AND C[…] […]” (Aero-Bw K. Domagala Sp. Jawna, priority 2022, dated 2024)
Values joined by “and” are separate entries in the source; they are usually repeats but may differ in a detail not shown here. Equal entries are not always repeated.

Test system: Salmonella typhimurium TA98
Test: Ames test, strain TA98 (reading frame shift)
Assay type: cell-based
Conditions: positive control at 2 µg/mL

With `O=[N+]([O-])c1ccc2c(c1)Cc1ccccc1-2` [Extract 2-NF, 2-nitrofluorene] the “MOI (Multiplicity of induction compared to baseline)” value was 6.9 and 5.6.
